Like-named read-outs stand apart in the source and are kept apart here.
Biological target: T1, human recombinant LPA2 expressed in CHO cells (Homo sapiens, UniProt Q9HBW0)
T1 construct: expressed in transfected cells; host or cells: CHO (CHO-hLPA2 cell line)
Assay: FLIPR calcium mobilization assay, LPA2 antagonism in CHO-hLPA2 cells
Format: cell-based
Procedure: The effectiveness of compounds of the present invention as LPA2 antagonist can be determined at the human recombinant LPA2 expressed in CHO cells, using a FLIPR assay in 384 well format.
CHO-hLPA2 cell lines are cultured in a humidified incubator at 5% CO2 in DMEM/F-12 (1:1) MIXTURE with 2 mM Glutamax, supplemented with 10% of Foetal Bovine Serum, 1 mM Sodium Pyruvate, 11 mM Hepes and 1× Penicillin/Streptomycin. CHO hLPA2 cells are seeded into black walled clear-bottom 384-well plates (#781091, Greiner Bio-One GmbH) at a density of 7,500 cells per well in 50 μl culture media and grown overnight in a 37° C. humidified CO2-incubator. Serial dilutions (1:3 or 1:4, 11 points CRC) of compounds are performed in 100% DMSO at 200× the final concentration. The compounds are diluted 1:50 prior to the experiment with Assay Buffer (20 mM HEPES, 145 mM NaCl, 5 mM KCl, 5.5 mM glucose, 1 mM MgCl2 and 2 mM CaCl2, pH 7.4 containing 0.01% Pluronic F-127) to obtain a solution corresponding to […] the final concentration in the assay (4×, 2% DMSO). The final concentration of DMSO in the assay will be 0.5% in each well. Medium is removed by aspiration and cells are then incubated with 30 μl of a loading solution containing 5 μM of the cytoplasmic Ca2+ indicator Cal-520 AM in Assay Buffer containing 2.5 mM probenecid for 30 min at 37° C. incubator (cell loading). The loaded cell plates are transferred into the FLIPR instrument and calcium responses are monitored during the on-line addition protocols. For testing of compounds, after the cell loading, 10 μl/well of 4× antagonists' solution was added onto the cells. […] Intracellular peak fluorescence values subtracted by baseline fluorescence are exported and analysed to determine IC50 values, respectively. The calcium response is expressed as percentage of the maximal inhibition of the EC80 agonist response.
The raw data (peak height expressed as relative fluorescence units) are normalized and transformed into “percent of inhibition”. Curve fitting and pIC50 (−Log IC50) estimations are carried out using a four-parameter logistic model using XLfit Software.

[1] = CHO-hLPA2 cells, inhibition of LPA EC80 Ca2+ response, 30 min pre-incubation, read-out: LPA2 IC50

T1 sequence (Q9HBW0 whole entry): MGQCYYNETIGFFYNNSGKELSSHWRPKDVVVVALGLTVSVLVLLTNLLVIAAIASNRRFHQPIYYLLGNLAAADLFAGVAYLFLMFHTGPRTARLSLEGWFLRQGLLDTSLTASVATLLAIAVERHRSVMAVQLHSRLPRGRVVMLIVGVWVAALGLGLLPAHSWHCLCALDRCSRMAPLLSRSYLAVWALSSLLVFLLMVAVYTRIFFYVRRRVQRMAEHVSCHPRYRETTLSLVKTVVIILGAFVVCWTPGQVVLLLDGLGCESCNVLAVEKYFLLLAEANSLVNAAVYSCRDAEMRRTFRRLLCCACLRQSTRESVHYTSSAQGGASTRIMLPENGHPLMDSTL

IC50 [1]	IC50 (same in vitro assay as Table 2, read-out: IC50 on LPA2 receptor)	SMILES
< 1000 nM		COC(=O)Nc1nc(C)c(S(=O)(=O)N2CCN(C[C@H](C)Nc3nc(C(F)(F)F)nc4ccccc34)CC2)s1 [Example 11, methyl N-[4-methyl-5-({4-[(2S)-2-{[2-(trifluoromethyl)quinazolin-4-yl]amino}propyl]piperazin-1-yl}sulfonyl)-1,3-thiazol-2-yl]carbamate]
< 10 nM		Cc1noc(-c2ccc(S(=O)(=O)N3CCN(C[C@H](C)Nc4ncnc5c(C(=O)N(C)C)cccc45)CC3)s2)c1C [Example 43, 4-{[(2S)-1-(4-{[5-(3,4-dimethyl-1,2-oxazol-5-yl)thiophen-2-yl]sulfonyl}piperazin-1-yl)propan-2-yl]amino}-N,N-dimethylquinazoline-8-carboxamide]
< 1000 nM		COC(=O)Nc1nc(C)c(S(=O)(=O)N2CCN(C[C@H](C)Nc3ncnc4c(C(=O)N5CCC[C@H]5C(F)(F)F)cccc34)CC2)s1 (racemic) [Example 84, methyl N-[4-methyl-5-({4-[(2S)-2-({8-[(2S)-2-(trifluoromethyl)pyrrolidine-1-carbonyl]quinazolin-4-yl}amino)propyl]piperazin-1-yl}sulfonyl)-1,3-thiazol-2-yl]carbamate]
10 to 100 nM		COC(=O)Nc1nc(C)c(S(=O)(=O)N2CCN(C[C@H](C)Nc3ncnc4c(C(=O)N5CCC[C@@H]5C(F)(F)F)cccc34)CC2)s1 (racemic) [Example 79, methyl N-[4-methyl-5-({4-[(2S)-2-({8-[(2R)-2-(trifluoromethyl)pyrrolidine-1-carbonyl]quinazolin-4-yl}amino)propyl]piperazin-1-yl}sulfonyl)-1,3-thiazol-2-yl]carbamate]
< 10 nM		Cc1noc(-c2ccc(S(=O)(=O)N3CCN(C[C@H](C)Nc4ncnc5c(C(=O)N6CCC[C@@H]6C(F)(F)F)cccc45)CC3)s2)c1C (racemic) [Example 76, N-[(2S)-1-(4-{[5-(3,4-dimethyl-1,2-oxazol-5-yl)thiophen-2-yl]sulfonyl}piperazin-1-yl)propan-2-yl]-8-[(2R)-2-(trifluoromethyl)pyrrolidine-1-carbonyl]quinazolin-4-amine]
< 10 nM		Cc1noc(-c2ccc(S(=O)(=O)N3CCN(C[C@H](C)Nc4ncnc5c(C(=O)N6CCC[C@@H]6C)cccc45)CC3)s2)c1C (racemic) [Example 86, N-[(2S)-1-(4-{[5-(3,4-dimethyl-1,2-oxazol-5-yl)thiophen-2-yl]sulfonyl}piperazin-1-yl)propan-2-yl]-8-[(2S)-2-methylpyrrolidine-1-carbonyl]quinazolin-4-amine]
< 1000 nM		COC(=O)Nc1ncc(S(=O)(=O)N2CCN(C[C@H](C)Nc3ncnc4c(C(F)(F)F)cccc34)CC2)s1 [Example 26, methyl N-[5-({4-[(2S)-2-{[8-(trifluoromethyl)quinazolin-4-yl]amino}propyl]piperazin-1-yl}sulfonyl)-1,3-thiazol-2-yl]carbamate]
10 to 100 nM		COC(=O)c1cccc2c(N[C@@H](C)CN3CCN(S(=O)(=O)c4cnc(-c5ccccc5)s4)CC3)ncnc12 [Example 12, methyl 4-{[(2S)-1-{4-[(2-phenyl-1,3-thiazol-5-yl)sulfonyl]piperazin-1-yl}propan-2-yl]amino}quinazoline-8-carboxylate]
10 to 100 nM		Cc1n[nH]c(-c2ccc(S(=O)(=O)N3CCN(C[C@H](C)Nc4ncnc5c(C(F)(F)F)cccc45)CC3)o2)c1C [Example 56, N-[(2S)-1-(4-{[5-(3,4-dimethyl-1H-pyrazol-5-yl)furan-2-yl]sulfonyl}piperazin-1-yl)propan-2-yl]-8-(trifluoromethyl)quinazolin-4-amine]
< 1000 nM		Cc1noc(-c2ccc(S(=O)(=O)N3CCN(C[C@H](C)Nc4ncnc5c(CN(C)C)cccc45)CC3)s2)c1C [Example 74, N-[(2S)-1-(4-{[5-(3,4-dimethyl-1,2-oxazol-5-yl)thiophen-2-yl]sulfonyl}piperazin-1-yl)propan-2-yl]-8-[(dimethylamino)methyl]quinazolin-4-amine]
< 1000 nM		C[C@@H](CN1CCN(S(=O)(=O)c2ccc(-c3ccn[nH]3)o2)CC1)Nc1ncnc2c(C(F)(F)F)cccc12 [Example 67, N-[(2S)-1-(4-{[5-(1H-pyrazol-5-yl)furan-2-yl]sulfonyl}piperazin-1-yl)propan-2-yl]-8-(trifluoromethyl)quinazolin-4-amine]
10 to 100 nM		COC(=O)N(C)c1nc(C)c(S(=O)(=O)N2CCN(C[C@H](C)Nc3ncnc4c(C(F)(F)F)cccc34)CC2)s1 [Example 89, methyl N-methyl-N-[4-methyl-5-({4-[(2S)-2-{[8-(trifluoromethyl)quinazolin-4-yl]amino}propyl]piperazin-1-yl}sulfonyl)-1,3-thiazol-2-yl]carbamate]
< 1000 nM		COCC(=O)Nc1nc(C)c(S(=O)(=O)N2CCN(C[C@H](C)Nc3ncnc4c(C(F)(F)F)cccc34)CC2)s1 [Example 25, 2-methoxy-N-[4-methyl-5-({4-[(2S)-2-{[8-(trifluoromethyl)quinazolin-4-yl]amino}propyl]piperazin-1-yl}sulfonyl)-1,3-thiazol-2-yl]acetamide]
10 to 100 nM		CC(=O)Nc1ncc(S(=O)(=O)N2CCN(C[C@H](C)Nc3nc(C)nc4c(C(F)(F)F)cccc34)CC2)s1 [Example 13, N-[5-({4-[(2S)-2-{[2-methyl-8-(trifluoromethyl)quinazolin-4-yl]amino}propyl]piperazin-1-yl}sulfonyl)-1,3-thiazol-2-yl]acetamide]
< 1000 nM		C[C@@H](CN1CCN(S(=O)(=O)c2ccc(-c3ccno3)o2)CC1)Nc1ncnc2c(C(F)(F)F)cccc12 [Example 54, N-[(2S)-1-(4-{[5-(1,2-oxazol-5-yl)furan-2-yl]sulfonyl}piperazin-1-yl)propan-2-yl]-8-(trifluoromethyl)quinazolin-4-amine]
< 1000 nM		COC(=O)Nc1nc(C)c(S(=O)(=O)N2CCN(C[C@H](C)Nc3nc(C4CC4)nc4ccccc34)CC2)s1 [Example 15, methyl N-[5-({4-[(2S)-2-[(2-cyclopropylquinazolin-4-yl)amino]propyl]piperazin-1-yl}sulfonyl)-4-methyl-1,3-thiazol-2-yl]carbamate]
10 to 100 nM		Cc1noc(-c2ccc(S(=O)(=O)N3CCN(C[C@H](C)Nc4ncnc5c(OC(F)F)cccc45)CC3)s2)c1C [Example 4, 8-(difluoromethoxy)-N-[(2S)-1-(4-{[5-(3,4-dimethyl-1,2-oxazol-5-yl)thiophen-2-yl]sulfonyl}piperazin-1-yl)propan-2-yl]quinazolin-4-amine]
	> 3000 nM	COC(=O)Nc1nc(C)c(S(=O)(=O)N2CCN(C[C@H](C)Nc3ncnc4ncccc34)CC2)s1 [comparative Example A, Methyl (S)-(4-methyl-5-((4-(2-(pyrido[2,3-d]pyrimidin-4 ylamino)propyl)piperazin-1-yl)sulfonyl)thiazol-2-yl)carbamate, reference compound]
10 to 100 nM		COC(=O)Nc1nc(C)c(S(=O)(=O)N2CCN(C[C@H](C)Nc3ncnc4c(C(=O)OC)cccc34)CC2)s1 [Example 17, methyl 4-{[(2S)-1-[4-({2-[(methoxycarbonyl)amino]-4-methyl-1,3-thiazol-5-yl}sulfonyl)piperazin-1-yl]propan-2-yl]amino}quinazoline-8-carboxylate]
< 10 nM		Cc1noc(-c2ccc(S(=O)(=O)N3CCN(C[C@H](C)Nc4ncnc5c(C(=O)N6CC7CC7C6)cccc45)CC3)s2)c1C (mixture of isomers) [Example 85, 8-{3-azabicyclo[3.1.0]hexane-3-carbonyl}-N-[(2S)-1-(4-{[5-(3,4-dimethyl-1,2-oxazol-5-yl)thiophen-2-yl]sulfonyl}piperazin-1-yl)propan-2-yl]quinazolin-4-amine]
< 1000 nM		CC(=O)Nc1ccc(S(=O)(=O)N2CCN(C[C@H](C)Nc3ncnc4c(C(F)(F)F)cccc34)CC2)s1 [Example 90, N-[5-({4-[(2S)-2-{[8-(trifluoromethyl)quinazolin-4-yl]amino}propyl]piperazin-1-yl}sulfonyl)thiophen-2-yl]acetamide]
< 1000 nM		COCC(=O)Nc1ncc(S(=O)(=O)N2CCN(C[C@H](C)Nc3ncnc4c(C(F)(F)F)cccc34)CC2)s1 [Example 24, 2-methoxy-N-[5-({4-[(2S)-2-{[8-(trifluoromethyl)quinazolin-4-yl]amino}propyl]piperazin-1-yl}sulfonyl)-1,3-thiazol-2-yl]acetamide]

SMILES	IC50 [1]	IC50 (same in vitro assay as Table 2, read-out: IC50 on LPA2 receptor)
Cc1cc(-c2ccc(S(=O)(=O)N3CCN(C[C@H](C)Nc4ncnc5c(OC(=O)N(C)C)cccc45)CC3)s2)on1 [Example 91, 4-{[(2S)-1-(4-{[5-(3-methyl-1,2-oxazol-5-yl)thiophen-2-yl]sulfonyl}piperazin-1-yl)propan-2-yl]amino}quinazolin-8-yl N,N-dimethylcarbamate]	10 to 100 nM	

Source: patent publication US12404270B2, “Quinazoline derivatives as LPA receptor 2 inhibitors” (CHIESI FARMACEUTICI S.P.A., priority 2019, dated 2025)
